Sander's compilation of Henry's law constants
Each block holds one compound with its values, some of them ahead of it.

Assays:
[1] = Henry solubility constant Hcp at 310 K (mol/(m3 Pa))
[2] = Henry solubility constant Hcp at 298.15 K (mol/(m3 Pa))
[3] = Henry solubility constant Hcp at 293 K (mol/(m3 Pa))
[4] = reference: Power and Stegall (1970)
[5] = reference: Munz and Roberts (1987)
[6] = reference: Nicholson et al. (1984)
[7] = reference: Ruiz-Bevia and Fernandez-Torres (2010)
[8] = reference: Warner et al. (1980)
[9] = reference: Johanson and Dynésius (1988)
[10] = reference: Smith et al. (1981b)

SMILES: Cc1cc(C)cc(C)c1 [1,3,5-trimethylbenzene]
Henry solubility constant Hcp at 310 K ([1]; reference: Järnberg and Johanson (1995)): 0.00048
Henry solubility constant Hcp ([2]; reference: Sanemasa et al. (1981)): 0.0011

SMILES: FS(F)(F)(F)(F)F [sulfur hexafluoride]
Henry solubility constant Hcp at 310 K ([1]; reference: Longo et al. (1970)): 1.7e-06
Henry solubility constant Hcp at 310 K [1, 4]: 1.7e-06
Henry solubility constant Hcp ([2]; reference: Ashton et al. (1968)): 2.4e-06
Henry solubility constant Hcp ([2]; reference: Bullister et al. (2002)): 2.3e-06
Henry solubility constant Hcp ([2]; reference: Cosgrove and Walkley (1981)): 2.5e-06
Henry solubility constant Hcp ([2]; reference: Friedman (1954)): 2.2e-06
Henry solubility constant Hcp ([2]; reference: Park et al. (1982)): 2.4e-06

SMILES: BrC(Br)Br [tribromomethane]
Henry solubility constant Hcp at 310 K ([1]; reference: Zhang et al. (2002)): 0.0096
Henry solubility constant Hcp ([2]; reference: Khalfaoui and Newsham (1994a)): 0.0085
Henry solubility constant Hcp [2, 5]: 0.018
Henry solubility constant Hcp [2, 6]: 0.016
Henry solubility constant Hcp [2, 7]: 0.02
Henry solubility constant Hcp [2, 8]: 0.019

SMILES: [C-]#[O+] [carbon monoxide]
Henry solubility constant Hcp at 310 K [1, 4]: 8.3e-06
Henry solubility constant Hcp ([2]; reference: Bunsen (1855a)): 9.5e-06
Henry solubility constant Hcp ([2]; reference: Meadows and Spedding (1974)): 7.9e-05
Henry solubility constant Hcp ([2]; reference: Rettich et al. (1982)): 9.7e-06
Henry solubility constant Hcp ([2]; reference: Schmidt (1979)): 7e-06
Henry solubility constant Hcp ([2]; reference: Winkler (1901)): 9.4e-06

SMILES: O=C=O [carbon dioxide]
Henry solubility constant Hcp at 310 K [1, 4]: 0.00024
Henry solubility constant Hcp ([2]; reference: Bohr (1899)): 0.00034
Henry solubility constant Hcp ([2]; reference: Bunsen (1855a)): 0.00034
Henry solubility constant Hcp ([2]; reference: Geffcken (1904)): 0.00033
Henry solubility constant Hcp ([2]; reference: Kunerth (1922)): 0.00033
Henry solubility constant Hcp ([2]; reference: Morrison and Billett (1952)): 0.00033
Henry solubility constant Hcp ([2]; reference: Murray and Riley (1971)): 0.00033
Henry solubility constant Hcp ([2]; reference: Orcutt and Seevers (1937a)): 0.00033
Henry solubility constant Hcp ([2]; reference: Zheng et al. (1997)): 0.00034

SMILES: CC(Cl)(Cl)Cl [1,1,1-trichloroethane]
Henry solubility constant Hcp at 293 K ([3]; reference: Chiang et al. (1998)): 0.00071
Henry solubility constant Hcp at 293 K ([3]; reference: Pearson and McConnell (1975)): 0.00029
Henry solubility constant Hcp at 293 K ([3]; reference: Yurteri et al. (1987)): 0.00063
Henry solubility constant Hcp ([2]; reference: Bissonette et al. (1990)): 0.00051
Henry solubility constant Hcp ([2]; reference: Chen et al. (2012)): 0.00054
Henry solubility constant Hcp ([2]; reference: Ervin et al. (1980)): 0.00027
Henry solubility constant Hcp ([2]; reference: Gossett (1987)): 0.00059
Henry solubility constant Hcp ([2]; reference: Gossett et al. (1985)): 0.00057
Henry solubility constant Hcp ([2]; reference: Hunter-Smith et al. (1983)): 0.00076
Henry solubility constant Hcp ([2]; reference: Lincoff and Gossett (1984)): 0.00059
Henry solubility constant Hcp [2, 5]: 0.00058
Henry solubility constant Hcp ([2]; reference: Robbins et al. (1993)): 0.00055
Henry solubility constant Hcp ([2]; reference: Turner et al. (1996)): 0.00048
Henry solubility constant Hcp ([2]; reference: Vane and Giroux (2000)): 0.00062
Henry solubility constant Hcp [2, 8]: 0.002

SMILES: OCCO [1,2-ethanediol]
Henry solubility constant Hcp at 293 K ([3]; reference: Bone et al. (1983)): 4000
Henry solubility constant Hcp ([2]; reference: Butler and Ramchandani (1935)): 160

SMILES: ClC(Br)Br [dibromochloromethane]
Henry solubility constant Hcp at 310 K ([1]; reference: Zhang et al. (2002)): 0.0046
Henry solubility constant Hcp ([2]; reference: Ervin et al. (1980)): 0.0085
Henry solubility constant Hcp [2, 6]: 0.0086
Henry solubility constant Hcp [2, 7]: 0.011
Henry solubility constant Hcp [2, 8]: 0.013

Next, values leading:

Henry solubility constant Hcp at 310 K [1, 4]: 4.3e-06
Henry solubility constant Hcp ([2]; reference: Crovetto et al. (1982)): 4.4e-06
Henry solubility constant Hcp ([2]; reference: Krause and Benson (1989)): 4.5e-06
Henry solubility constant Hcp ([2]; reference: Lannung (1930)): 4.6e-06
Henry solubility constant Hcp ([2]; reference: Morrison and Johnstone (1954)): 4.5e-06
Henry solubility constant Hcp ([2]; reference: von Antropoff (1910)): 6.6e-06
SMILES: [Ne] [neon]

Henry solubility constant Hcp at 310 K [1, 9]: 4.8
SMILES: COCC(C)O (configuration not stated) [1-methoxy-2-propanol]

Henry solubility constant Hcp at 310 K ([1]; reference: Lerman et al. (1983)): 0.00024
Henry solubility constant Hcp [2, 10]: 0.00048
SMILES: FC(F)OC(Cl)C(F)(F)F (configuration not stated) [1-chloro-2,2,2-trifluoroethyl difluoromethyl ether]

Henry solubility constant Hcp at 310 K [1, 9]: 14
SMILES: COCCO [2-methoxyethanol]

Henry solubility constant Hcp at 310 K ([1]; reference: Falk et al. (1990)): 0.00016
SMILES: CC1=CCC2C(C1)C2(C)C (configuration not stated) [3,7,7-trimethyl-bicyclo[4.1.0]hept-3-ene]

Henry solubility constant Hcp at 310 K ([1]; reference: Edelist et al. (1964)): 0.00012
SMILES: FC(Br)C(F)(F)F (configuration not stated) [1-bromo-1,2,2,2-tetrafluoroethane]

Henry solubility constant Hcp at 310 K ([1]; reference: Munson et al. (1964)): 0.00033
Henry solubility constant Hcp at 310 K ([1]; reference: Stoelting and Longshore (1972)): 0.00032
Henry solubility constant Hcp [2, 10]: 0.00055
SMILES: C=COCC(F)(F)F [(2,2,2-trifluoroethoxy)-ethene]

Henry solubility constant Hcp at 310 K ([1]; reference: Falk et al. (1990)): 0.0007
Henry solubility constant Hcp ([2]; reference: Copolovici and Niinemets (2007)): 0.00026
Henry solubility constant Hcp ([2]; reference: Fichan et al. (1999)): 0.0007
Henry solubility constant Hcp ([2]; reference: Leng et al. (2013)): 0.00048
SMILES: C=C(C)C1CC=C(C)CC1 (configuration not stated) [1-methyl-4-(1-methylethenyl)-cyclohexene]

Henry solubility constant Hcp at 310 K ([1]; reference: Ercan (1979)): 3.2e-05
SMILES: [134Xe] [xenon-133]
